# Patent publication US6562803B2, “Hair-growing agent” (Kyowa Hakko Kogyo Co., Ltd., priority 2001, dated 2003)
# System: mouse hair follicle epithelial cells
# Experiment: Cell growth-promoting effect on cultured mouse hair follicle epithelial cells (MTT)
# Format: cell-based
# Settings: cultured 5 days, absorbance at 570 nm, control DMSO alone = 100
# Description: The skin on the back of a 4-days-old C3H mouse (Charles River Japan, Inc.) was cut off and treated with MEM (Eagle's Minimum Essential Medium) containing 500 units/ml Dispase (Godo Shusei Co., Ltd.) and 5% fetal calf serum (FCS) at 4° C. for 16 hours.
# The dermis suspension was filtered through a 212-μm nylon mesh (Nippon Rikagaku Kikai Co., Ltd.) and the filtrate was centrifuged at 1000 rpm for 5 minutes to obtain pellets containing hair follicle tissue. To the pellets was added calcium/magnesium-free PBS (Dulbecco's Phosphate-Buffered Saline) and the pellets were suspended therein using a pipette. The resulting suspension was allowed to stand for 15 minutes to precipitate hair follicle tissue. The same procedure as above (addition of calcium/magnesium-free PBS, suspending by use of a pipette, and precipitation by allowing the suspension to stand for 15 minutes) was repeated three times using the obtained hair follicle tissue.
# To the resulting mixture was added DMEM containing 10% FCS to prepare a hair follicle tissue cell suspension having a density of 3×10^5 cells/ml. The hair follicle tissue cell suspension was put into wells of a 24-well collagen-coated plate (Iwaki Glass Co., Ltd.) in an amount of 1 ml/well, followed by culturing in 5% CO2 at 37° C. for 24 hours.
# During the culturing, the medium was replaced with a fresh one every other day.
# The degree of cell growth was measured according to the method using MTT [3-(4,5-dimethylthiazol-2-yl)-2,5-diphenyl tetrazolium bromide]
# To each well of the 24-well microplate (2 cm^2/well) was added a PBS solution of MTT (5 mg/ml) in an amount of 1/10 by volume based on 1 ml of the culture. The plate was shaken to make the mixture homogeneous, followed by culturing in 5% CO2 at 37° C. for 4 hours. Four hours later, the culture was sucked and 1 ml of a 0.04 mol/l solution of HCl in isopropyl alcohol was added to each well to completely dissolve formazan formed in the wells.
# The degree of cell growth was determined by measuring the absorbance at 570 nm based on that at 650 nm as a control.
smiles,measurement,setting,value
"Cc1c(C)c2c(c(C)c1O)CCC(C)(CCCC(C)CCCC(C)CCCC(C)C)O2 (racemic) [dl-α-Tocopherol, dl-α-tocopherol]",Relative cell growth rate based on the control as 100,30 μmol/l,178
CCCCCCCC/C=C\CCCCCCCC(=O)OCC(COP(=O)(O)O)OC(C)=O (stereo not drawn) [1-O-oleoyl-2-O-acetylglyceryl-3-phosphoric Acid],Relative cell growth rate based on the control as 100,1 μmol/l,327
"Oc1cc(O)c2c(c1)O[C@H](c1ccc(O)c(O)c1)[C@H](O)[C@H]2c1c(O)cc(O)c2c1O[C@H](c1ccc(O)c(O)c1)[C@H](O)C2 [Procyanidin B-2, epicatechin-(4β→8)-epicatechin]",Relative cell growth rate based on the control as 100,30 μmol/l,295
